Test results taken from patent US9522907B2, “Anticancer agent and process for the preparation thereof” (COUNCIL OF SCIENTIFIC & INDUSTRIAL RESEARCH, priority 2014, dated 2016).

Columns and labels:
[1] = tested on: Breast cancer cell lines; experiment: cells; assay type: cell-based; conditions: for CC50: read-out: Log10 LC50 mean graph midpoint (MG_MID) (converted)
Description: (§1) The mean graph midpoint values of Log10 GI50 as well as Log10 LC50 for the compounds 2i, 5i and Hoechst 33258 (NSC-322921) is listed in Table 2.
(§2) Each cancer type represents the average of six to eight different cancer cell lines.

[2] = tested on: CNS cancer cell lines; experiment: cells; assay type: cell-based; conditions: for CC50: read-out: Log10 LC50 mean graph midpoint (MG_MID) (converted)
Description: as §1, §2

[3] = tested on: Colon cancer cell lines; experiment: cells; assay type: cell-based; conditions: for LC50: read-out: Log10 LC50 mean graph midpoint (MG_MID) (converted)
Description: as §1, §2

[4] = tested on: Leukemia cancer cell lines; experiment: cells; assay type: cell-based; conditions: for LC50 (50% lethal concentration, NCI mean graph midpoint): read-out: Log10 LC50 mean graph midpoint (MG_MID) (converted)
Description: as §1, §2

[5] = tested on: Melanoma cancer cell lines; experiment: cells; assay type: cell-based; conditions: for LC50: read-out: Log10 LC50 mean graph midpoint (MG_MID) (converted)
Description: as §1, §2

[6] = tested on: Non-small-cell lung cancer cell lines; experiment: cells; assay type: cell-based; conditions: for LC50 (lethal concentration 50%): read-out: Log10 LC50 mean graph midpoint (MG_MID) (converted)
Description: as §1, §2

[7] = tested on: Ovarian cancer cell lines; experiment: cells; assay type: cell-based; conditions: for CC50: read-out: Log10 LC50 mean graph midpoint (MG_MID) (converted)
Description: as §1, §2

[8] = tested on: Prostate cancer cell lines; experiment: cells; assay type: cell-based; conditions: for CC50: read-out: Log10 LC50 mean graph midpoint (MG_MID) (converted)
Description: as §1, §2

[9] = tested on: Renal cancer cell lines; experiment: cells; assay type: cell-based; conditions: for CC50: read-out: Log10 LC50 mean graph midpoint (MG_MID) (converted)
Description: as §1, §2

[10] = tested on: EKVX; experiment: NCI in vitro cytotoxicity, EKVX; conditions: Homo sapiens
Description: (§3) For these compounds results are expressed as growth inhibition (GI50) values as per NCI protocol.

[11] = tested on: 786-0; experiment: NCI in vitro cytotoxicity, 786-0; conditions: Homo sapiens
Description: as §3

[12] = tested on: TK-10; experiment: NCI in vitro cytotoxicity, TK-10; conditions: Homo sapiens
Description: as §3

[13] = tested on: HOP-92; experiment: NCI in vitro cytotoxicity, HOP-92; conditions: Homo sapiens
Description: as §3

[14] = tested on: SW-620; experiment: NCI in vitro cytotoxicity, SW-620; conditions: Homo sapiens
Description: as §3

[15] = tested on: HCT-116; experiment: NCI in vitro cytotoxicity, HCT-116; conditions: Homo sapiens
Description: as §3

[16] = tested on: OVCAR-3; experiment: NCI in vitro cytotoxicity, OVCAR-3; conditions: Homo sapiens
Description: as §3

[17] = tested on: OVCAR-5; experiment: NCI in vitro cytotoxicity, OVCAR-5; conditions: Homo sapiens
Description: as §3

[18] = tested on: SK-OV-3; experiment: NCI in vitro cytotoxicity, SK-OV-3; conditions: Homo sapiens
Description: as §3

[19] = tested on: HS 578T; experiment: NCI in vitro cytotoxicity, HS 578T; conditions: Homo sapiens
Description: as §3

[20] = tested on: NCI-H522; experiment: NCI in vitro cytotoxicity, NCI-H522; conditions: Homo sapiens
Description: as §3

[21] = tested on: COLO 205; experiment: NCI in vitro cytotoxicity, COLO 205; conditions: Homo sapiens
Description: as §3

[22] = tested on: LOX IMVI; experiment: NCI in vitro cytotoxicity, LOX IMVI; conditions: Homo sapiens
Description: as §3

[23] = tested on: SK-MEL-2; experiment: NCI in vitro cytotoxicity, SK-MEL-2; conditions: Homo sapiens
Description: as §3

[24] = tested on: A549/ATCC; experiment: NCI in vitro cytotoxicity, A549/ATCC; conditions: Homo sapiens
Description: as §3

[25] = tested on: NCI-H322M; experiment: NCI in vitro cytotoxicity, NCI-H322M; conditions: Homo sapiens
Description: as §3

[26] = tested on: K-562; experiment: NCI in vitro cytotoxicity, K-562; conditions: Homo sapiens, K562
Description: as §3

[27] = tested on: BT-549 (breast cancer cell line); experiment: NCI in vitro cytotoxicity, BT-549; conditions: Homo sapiens
Description: as §3

Row | SMILES | CC50 ([1]; Homo sapiens) [µM] | CC50 ([2]; Homo sapiens) [µM] | LC50 ([3]; Homo sapiens) [µM] | LC50 (50% lethal concentration, NCI mean graph midpoint) ([4]; Homo sapiens) [µM] | LC50 ([5]; Homo sapiens) [µM] | LC50 (lethal concentration 50%) ([6]; Homo sapiens) [µM] | CC50 ([7]; Homo sapiens) [µM] | CC50 ([8]; Homo sapiens) [µM] | CC50 ([9]; Homo sapiens) [µM] | GI50 [10] [µM] | GI50 [12] [µM] | GI50 [13] [µM] | GI50 [14] [µM] | GI50 [15] [µM] | GI50 [16] [µM] | GI50 [17] [µM] | GI50 [18] [µM] | GI50 [19] [µM] | GI50 [20] [µM] | GI50 [22] [µM] | also measured
1 | COc1cc(-c2nc(-c3ccc(-c4nc5cc(F)ccc5[nH]4)cc3)no2)cc(OC)c1OC [2i, 3-(4-(5-Fluoro-1H-benzo[d]imidazol-2-yl)phenyl)-5-(3,4,5-trimethoxyphenyl)-1,2,4-oxadiazole] | 93.3 | 91.2 | 75.9 | ≥ 100 | 35.5 | 75.9 | 87.1 | ≥ 100 | 79.4 | 3.45 | 8.27 | 1.76 | 3.61 | 2.13 | 2.56 | 5.59 | 4.12 | 2.27 | 3.04 | 1.65 | Log10 GI50 mean graph midpoint (MG_MID) ([1]; Breast, average of cell lines of the cancer type): −5.55; Log10 GI50 mean graph midpoint (MG_MID) ([2]; CNS, average of cell lines of the cancer type): −5.39; Log10 GI50 mean graph midpoint (MG_MID) ([3]; Colon, average of cell lines of the cancer type): −5.44; Log10 GI50 mean graph midpoint (MG_MID) ([4]; Leukemia, average of cell lines of the cancer type): −5.64; Log10 GI50 mean graph midpoint (MG_MID) ([5]; Melanoma, average of cell lines of the cancer type): −5.55; Log10 GI50 mean graph midpoint (MG_MID) ([6]; Non-small-cell lung, average of cell lines of the cancer type): −5.47; Log10 GI50 mean graph midpoint (MG_MID) ([7]; Ovarian, average of cell lines of the cancer type): −5.49; Log10 GI50 mean graph midpoint (MG_MID) ([8]; Prostate, average of cell lines of the cancer type): −5.51; Log10 GI50 mean graph midpoint (MG_MID) ([9]; Renal, average of cell lines of the cancer type): −5.45; GI50 [11]: 3.61 µM; GI50 [21]: 4.77 µM; GI50 [23]: 4.21 µM; GI50 [24]: 3.42 µM; GI50 [25]: 1.3 µM
2 | COc1ccc2[nH]c(-c3ccc(-c4noc(-c5cc(OC)c(OC)c(OC)c5)n4)cc3)nc2c1 [5i, 3-(4-(5-Methoxy-1H-benzo[d]imidazol-2-yl)phenyl)-5-(3,4,5-trimethoxyphenyl)-1,2,4-oxadiazole] | 79.4 | 44.7 | 85.1 | 100 | 83.2 | 79.4 | 67.6 | 91.2 | 74.1 | 26.2 | 4.62 | 14.3 | 5.89 | 1.9 | 42.5 | 16.7 | 25.3 | 9.49 | 6.89 | 13.3 | GI50 ([1]; Homo sapiens, Breast, average of cell lines of the cancer type, read-out: Log10 GI50 mean graph midpoint (MG_MID) (converted)): 3.39 µM; GI50 ([2]; Homo sapiens, CNS, average of cell lines of the cancer type, read-out: Log10 GI50 mean graph midpoint (MG_MID) (converted)): 6.31 µM; GI50 ([3]; Homo sapiens, Colon, average of cell lines of the cancer type, read-out: Log10 GI50 mean graph midpoint (MG_MID) (converted)): 4.79 µM; GI50 ([4]; Homo sapiens, Leukemia, average of cell lines of the cancer type, read-out: Log10 GI50 mean graph midpoint (MG_MID) (converted)): 3.31 µM; GI50 ([5]; Homo sapiens, Melanoma, average of cell lines of the cancer type, read-out: Log10 GI50 mean graph midpoint (MG_MID) (converted)): 7.59 µM; GI50 ([6]; Homo sapiens, Non-small-cell lung, average of cell lines of the cancer type, read-out: Log10 GI50 mean graph midpoint (MG_MID) (converted)): 8.71 µM; GI50 ([7]; Homo sapiens, Ovarian, average of cell lines of the cancer type, read-out: Log10 GI50 mean graph midpoint (MG_MID) (converted)): 7.59 µM; GI50 ([8]; Homo sapiens, Prostate, average of cell lines of the cancer type, read-out: Log10 GI50 mean graph midpoint (MG_MID) (converted)): 14.1 µM; GI50 ([9]; Homo sapiens, Renal, average of cell lines of the cancer type, read-out: Log10 GI50 mean graph midpoint (MG_MID) (converted)): 14.5 µM; GI50 [26]: 1.2 µM; GI50 [27]: 0.52 µM; GI50 [23]: 18.9 µM; GI50 [24]: 5.65 µM
